Data as given in article PMC12990037, “Discovery of Two Structurally Distinct Classes of Inhibitors Targeting the Nuclease MUS81 and Enhancing Efficacy of Chemotherapy in Cancer Cells” (Journal of Medicinal Chemistry, 2026).

Columns and labels:
[1] = target: T1, truncated MUS81 binding to immobilized DNA substrate (Homo sapiens, UniProt Q96NY9); assay: Biolayer interferometry (BLI); details: truncated MUS81 200 nM
T1 construct: made in house
T1 sequence (Q96NY9 246-551): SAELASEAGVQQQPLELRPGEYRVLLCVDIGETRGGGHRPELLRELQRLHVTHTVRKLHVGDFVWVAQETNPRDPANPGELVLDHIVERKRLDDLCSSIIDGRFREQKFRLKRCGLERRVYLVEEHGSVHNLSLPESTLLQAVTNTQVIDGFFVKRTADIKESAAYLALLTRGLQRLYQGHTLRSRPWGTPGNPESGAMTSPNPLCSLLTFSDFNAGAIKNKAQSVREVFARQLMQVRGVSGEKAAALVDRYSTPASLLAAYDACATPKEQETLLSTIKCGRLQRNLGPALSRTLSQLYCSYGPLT
T1 sequence (Q96AY2 178-570 partner limits assumed): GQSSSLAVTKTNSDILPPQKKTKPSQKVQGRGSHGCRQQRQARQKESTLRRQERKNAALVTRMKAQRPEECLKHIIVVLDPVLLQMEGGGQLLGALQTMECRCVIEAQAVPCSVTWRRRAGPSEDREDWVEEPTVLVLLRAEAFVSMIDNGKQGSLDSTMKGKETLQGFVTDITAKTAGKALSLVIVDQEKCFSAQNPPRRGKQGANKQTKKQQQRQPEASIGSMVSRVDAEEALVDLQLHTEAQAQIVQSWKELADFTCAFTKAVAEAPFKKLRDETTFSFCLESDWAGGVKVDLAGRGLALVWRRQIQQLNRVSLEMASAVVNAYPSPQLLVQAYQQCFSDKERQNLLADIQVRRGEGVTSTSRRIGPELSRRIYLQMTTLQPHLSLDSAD
Method: (A,B) Purified MUS81–EME1 (160 nM) was incubated with increasing concentrations of MU262, MU876, or their respective control analogues, followed by the addition of 3 nM fluorescently labeled 3′ flap DNA substrate. MgCl2 was omitted from the reaction buffer to prevent substrate cleavage. The reaction products were resolved on a native PAGE gel. The lower band represents a free DNA substrate, while the upper smear corresponds to the MUS81–DNA complex. n = 3. (C,D) A 3′ flap cleavage-resistant DNA substrate was immobilized on a streptavidin-coated (SAX) sensor and incubated with truncated MUS81 (200 nM) alone, or with MUS81 premixed with DMSO, MU876, MU262, or their respective control analogues. The real-time binding kinetics were measured as a change in optical thickness over time. Representative plots shown from two independent experiments. (E) Representative images of a DMSO-treated cell within 100 s after microirradiation. GFP-MUS81 U2OS cells were preincubated with DMSO or MU876 at 1 and 5 μM final concentration for 2 h. Localized DNA damage was induced using a 355 nm laser microirradiation at specific sites in individual nuclei. […] (F) The integrated intensity of a GFP-MUS81 signal accumulation ± SE from (E). n = 3.

CAL51 WT cells = assay: γH2AX foci after cisplatin treatment; type: cell-based; details: compared to the DMSO controls
Method: 7 MUS81 inhibitors synergize with cisplatin to reduce cancer cell viability. (A,B) U2OS cells were treated with DMSO, MU262, or MU876 at the indicated concentrations in combination with a range of cisplatin (0–5 μM) for 96–120 h. Cell viability was assessed by the Cy-Quant assay. The survival was normalized to the DMSO-treated control. Graphs were generated in Graphpad Prism using the nonlinear regression fitting model. n ≥ 3, error bars represent s.d. (C) CAL51 WT cells were treated with DMSO, MU262, or MU876 at the indicated concentrations at each passage over 2 weeks. Cisplatin (12 μM) was added for the last 24 h before harvest. DNA damage was assessed by quantifying γH2AX foci using fluorescence microscopy and CellProfiller software. Data were visualized plotted in R software. Red markers represent the median of γH2AX foci number per nucleus; blue markers represent the percentage of cells with ≥20 γH2AX foci per nucleus. n = 3, error bars represent s.d.; ****p <0.0001 (unpaired, two-tailed t-test). […]
U2OS, CAL51 WT, and CAL51 MUS81^–/– cells (10,000) were seeded in a 96-well plate 24 h before the treatment. […] The γH2AX foci were detected and quantified using CellProfiler (Broad Institute of MIT and Harvard). The analyzed data were plotted in RStudio software using R programming language.

SMILES	effect on MUS81–DNA binding (BLI) [1]	γH2AX foci following cisplatin treatment (CAL51 WT cells)
CCc1nn2c(O)c(-c3nc4ccccc4[nH]3)nnc2c1-c1ccc(F)cc1 [Compound 18, 3-(1H-Benzo[d]imidazole-2-yl)-7-ethyl-8-(4-fluorophenyl)pyrazolo[5,1-c][1,2,4]triazin-4-ol]	only negligible effect	significantly reduced the number of γH2AX foci in a concentration-dependent manner
Cc1cc(=O)[nH]c(-n2nc(-c3ccccc3)cc2NC(=O)c2cc(-c3ccccc3)on2)n1 [Compound 32, N-(1-(4-Methyl-6-oxo-1,6-dihydropyrimidin-2-yl)-3-phenyl-1H-pyrazol-5-yl)-5-phenylisoxazole-3-carboxamide]		significantly reduced the number of γH2AX foci in a concentration-dependent manner
